Laboratory results as given in ChEMBL document CHEMBL1127250, “3,4-Di-o-()-camphanoyl-(+)-ciskhellactone and related compounds: A. new class of potent anti-HIV agents” (Bioorg Med Chem Lett, 1994).

Key:
[1] = system: H9; assay: Effective concentration against HIV-1 replication in H9 lymphocyte cells was determined; assay type: functional, cell-based; settings: Homo sapiens
[2] = Therapeutic index was determined; settings: read-out: TI
[3] = system: H9; assay: Compound was tested for inhibitory activity against HIV-1 replication in H9 lymphocyte cells; assay type: functional, cell-based; settings: Homo sapiens
[4] = system: H9; assay: Compound was tested for inhibitory activity against HIV-1 replication in H9 lymphocyte cells; Activity >6.4 but < 32; assay type: functional, cell-based; settings: Homo sapiens
[5] = system: H9; assay: Effective concentration against HIV-1 replication in H9 lymphocyte cells was determined; Activity >6.4 but < 32; assay type: functional, cell-based; settings: Homo sapiens
[6] = system: U-937; assay: Effective concentration against HIV-1 infection in U-937 cell line was determined; assay type: functional, cell-based; settings: Homo sapiens
[7] = system: H9; assay: Compound was tested for inhibitory activity against HIV-1 replication in H9 lymphocyte cells; Activity range >32 but <160; assay type: functional, cell-based; settings: Homo sapiens
[8] = Therapeutic index was determined; Value is >3,125 but < 15,625; settings: read-out: TI
[9] = Therapeutic index was determined; Value is >78049 but < 390244; settings: read-out: TI
[10] = Therapeutic index was determined; Value is >222 but < 1,111; settings: read-out: TI
[11] = Effective concentration against HIV-1 infection in peripheral blood mononuclear cells was determined; assay type: functional; settings: Homo sapiens

CC1(C)Oc2ccc3ccc(=O)oc3c2[C@H](OC(=O)C23CCC(C)(C(=O)O2)C3(C)C)[C@@H]1OC(=O)C12CCC(C)(C(=O)O1)C2(C)C (stereo not given in full)
EC50 [1]: 51 µM
selectivity ratio [2]: > 33.3
IC50 [3]: 1700 µM

Cc1cn([C@H]2C[C@H](N=[N+]=[N-])[C@@H](CO)O2)c(=O)[nH]c1=O [ZIDOVUDINE]
EC50 [1]: 0.15 µM

CC(=O)O[C@@H]1[C@H](OC(=O)CC(C)C)c2c(ccc3ccc(=O)oc23)OC1(C)C [SUKSDORFIN]
EC50 [1]: 1.3 µM
selectivity ratio [2]: > 40
IC50 [3]: > 52 µM

CC1(C)Oc2ccc3ccc(=O)oc3c2[C@H](OC(=O)C23CCC(C)(C(=O)O2)C3(C)C)[C@H]1OC(=O)C12CCC(C)(C(=O)O1)C2(C)C (stereo not given in full)
IC50 [4]: < 32 µM
EC50 [5]: < 32 µM
selectivity ratio [2]: > 1

CC1(C)Oc2ccc3ccc(=O)oc3c2[C@@H](OC(=O)C23CCC(C)(C(=O)O2)C3(C)C)[C@@H]1OC(=O)C12CCC(C)(C(=O)O1)C2(C)C (stereo not given in full)
EC50 [1]: 32 µM
selectivity ratio [2]: > 1
IC50 [3]: > 32 µM

CC1(C)Oc2ccc3ccc(=O)oc3c2[C@@H](OC(=O)C23CCC(C)(C(=O)O2)C3(C)C)[C@H]1OC(=O)C12CCC(C)(C(=O)O1)C2(C)C (stereo not given in full)
EC50 [6]: 0.0021 µM
IC50 [7]: < 160 µM
selectivity ratio [8]: > 3120
selectivity ratio [9]: < 390000
EC50 [1]: 0.00041 µM
selectivity ratio [10]: > 222
EC50 [11]: 0.029 µM
